Values quoted from earlier work in US9370164B2, “Breeding, production, processing and use of specialty Cannabis” (Biotech Institute LLC, priority 2013, dated 2016).
Like-named read-outs stand apart in the source and are kept apart here.

Legend:
[1] = for Pharmacological Action: Bronchodialator: indications: Asthma, Sleep-related breathing disorders; for Pharmacological Action: Anti-inflammatory: indications: Pain, Chron's, Arthritis; for Pharmacological Action: Anti-inflammatory / Pharmacological Action: Immunosuppressive / Pharmacological Action: Neuroprotective: MS; for Pharmacological Action: Antidepressant: indication: Depression; for Pharmacological Action: Anxiolytic: indications: Panic Disorder, Social Anxiety Disorder, Generalized Anxiety Disorder, PTSD; for Pharmacological Action: Sedative: indication: Sleep disorders; for Pharmacological Action: Analgesic / Pharmacological Action: Anti-spasmodic: indications: MS; for Pharmacological Action: Analgesic: Post-operative pain, Migraine, Neuropathic pain, Sciatica; for Pharmacological Action: Anti-emetic: indication: CIE; for Pharmacological Action: Intestinal Anti-prokinetic: indication: Diarrhea; for Pharmacological Action: Anti-epileptic: indication: Epilepsy; for Pharmacological Action: Vasorelaxant: indication: Glaucoma; for Pharmacological Action: Muscle relaxant: indication: MS; for Pharmacological Action: Immunosuppressive: indications: Allergies, RA, IBS; for Pharmacological Action: Anti-spasmodic: Spinal cord injury, Cerebral palsy; for Pharmacological Action: Neuroprotective: indications: Parkinson's, Alzheimer's, Stroke
[2] = for Proposed mechanism, Analgesic: post-operative pain

| SMILES | Pharmacological Action: Anti-inflammatory [1] | Proposed mechanism, Anti-inflammatory [2] | Pharmacological Action: Antidepressant [1] | Pharmacological Action: Anxiolytic [1] | Pharmacological Action: Sedative [1] | Pharmacological Action: Analgesic [1] | Pharmacological Action: Anti-epileptic [1] | further results |
| --- | --- | --- | --- | --- | --- | --- | --- | --- |
| CC1=CCC2CC1C2(C)C (stereo not drawn) [a-pinene] | ✓ | PGE1 |  |  |  |  |  | Pharmacological Action: Bronchodialator [1]: ✓ |
| C=C(C)[C@H]1CC=C(C)CC1 [Limonene] |  |  | ✓ | ✓ |  |  |  |  |
| CCCCCc1cc(O)c2c(c1)OC(C)(C)c1ccc(C)cc1-2 [CBN] |  |  |  |  | ✓ | ✓ |  |  |
| CCCCCc1cc(O)c2c(c1)OC(C)(C)[C@@H]1CCC(C)=C[C@@H]21 [THC] | ✓ | (+)PPARg | ✓ | ✓ | ✓ | ✓ | ✓ | Pharmacological Action: Anti-emetic [1]: ✓; Pharmacological Action: Intestinal Anti-prokinetic [1]: ✓; Pharmacological Action: Vasorelaxant [1]: ✓; Pharmacological Action: Muscle relaxant [1]: ✓; Pharmacological Action: Immunosuppressive [1]: ✓; Pharmacological Action: Appetite Stimulant ([1]; indications: Anorexia, Cachexia, AIDS wasting): ✓; Pharmacological Action: Bronchodialator [1]: ✓; Pharmacological Action: Anti-spasmodic [1]: ✓; Pharmacological Action: Neuroprotective [1]: ✓; Proposed mechanism, Anti-proliferative [2]: (−)TRPM8; Proposed mechanism, Appetite Stimulant ([2]; Appetite Stimulant): (+)PPARg; Proposed mechanism, Vasorelaxant [2]: (+)PPARg |
| CCCc1cc(O)c2c(c1)OC(C)(C)[C@@H]1CCC(C)=C[C@@H]21 [THCV] |  |  |  |  |  |  | ✓ | Proposed mechanism, Anti-epileptic [2]: (−)CB1 |
| CCCCCc1cc(O)c2c(c1)OC(C)(CCC=C(C)C)C=C2 (stereo not drawn) [CBC] | ✓ |  |  |  |  | ✓ |  |  |
| C=CC(=C)CCC=C(C)C [b-myrcene] | ✓ | PGE2 |  |  | ✓ | ✓ |  |  |
| C=C1CC/C=C(\C)CC[C@@H]2[C@@H]1CC2(C)C [b-caryophyl.] | ✓ | PGE1 |  |  |  |  |  |  |
| CCCCCc1cc(O)c(C/C=C(\C)CCC=C(C)C)c(O)c1 [CBG] |  |  | ✓ | ✓ |  | ✓ | ✓ | Pharmacological Action: Muscle relaxant [1]: ✓; Pharmacological Action: Anti-spasmodic [1]: ✓; Proposed mechanism, Analgesic [2]: (+)TRPA1; Proposed mechanism, Anti-proliferative [2]: (−)TRPM8; Proposed mechanism, Antidepressant ([2]; Antidepressant): (−)5HT1A |
| C=CC(C)(O)CCC=C(C)C (stereo not drawn) [Linalool] |  |  |  | ✓ | ✓ | ✓ | ✓ | Proposed mechanism, Anti-epileptic [2]: anti-Glu |
| C=C(C)[C@@H]1CCC(C)=C[C@H]1c1c(O)cc(CCCCC)cc1O [CBD] | ✓ |  | ✓ | ✓ | ✓ | ✓ | ✓ | Pharmacological Action: Anti-emetic [1]: ✓; Pharmacological Action: Intestinal Anti-prokinetic [1]: ✓; Pharmacological Action: Vasorelaxant [1]: ✓; Pharmacological Action: Immunosuppressive [1]: ✓; Pharmacological Action: Anti-spasmodic [1]: ✓; Pharmacological Action: Neuroprotective [1]: ✓; Proposed mechanism, Analgesic [2]: (+)TRPA1; Proposed mechanism, Anti-epileptic [2]: (+)5HT1A; Proposed mechanism, Anti-psychotic ([2]; Anti-psychotic): (+)TRPV1; Proposed mechanism, Anxiolytic ([2]; panic disorder): (+)5HT1A; Proposed mechanism, Anxiolytic ([2]; social anxiety disorder): (+)CB1; Proposed mechanism, Intestinal Anti-prokinetic ([2]; Intestinal Anti-prokinetic): (−)Ca1; Proposed mechanism, Vasorelaxant [2]: (+)PPARg |
